One experiment deals with LmexUU1. Type of experiment: cell-based, Leishmania mexicana. As to conditions: inhibition of [3H]-uracil uptake, 4 min. As for the experimental part:
(§1) Using the standard uptake technique as described for T. brucei and Leishmania species ([Wallace et al., 2002], [Al-Salabi and De Koning, 2005], [Gudin et al., 2006]), the dose- or time-dependent uptake of radiolabeled permeants was investigated.
(§2) Briefly, cells in the mid-to-late logarithmic stage of growth were harvested by centrifugation for 10 min at 1500×g. The cells were washed twice with transport assay buffer (AB: 33 mM HEPES, 98 mM NaCl, 4.6 mM KCl, 0.55 mM CaCl2, 0.07 mM MgSO4, 5.8 mM NaH2PO4, 0.3 mM MgCl2, 23 mM NaHCO3, 14 mM glucose, pH 7.3), resuspended at a density of 10^8 cells ml^−1 in AB, and left for 20–30 min at room temperature to recover from centrifugation stress. One hundred microliters of cell suspension was incubated at ambient temperature for a predetermined time with 100 μl radiolabeled test compound, in the presence or absence of unlabeled substrate or other competitive inhibitors. The incubation was terminated by the addition of ice-cold stop solution (AB containing saturating levels, usually 10 mM, of unlabeled permeant) and centrifugation through oil for 1 min at 13,000 × g. […] Radioactivity was determined by liquid scintillation counting in a Beckman LS6000 TA scintillation counter. Saturation data, inhibition data, and time courses were plotted to equations for linear or non-linear regression (hyperbolic or sigmoid curves), as appropriate. All experiments were performed in triplicate and on at least three independent occasions.

The target of experiment [1] is LmexNT1. The format is cell-based, Leishmania mexicana. To be noted: inhibition of 0.25 μM [3H]-uridine uptake in the presence of 1 mM uracil. Here is the method: as §1, §2
For experiment [2], the target named is LmexNT1. Briefly: [3H]-adenosine uptake by L. mexicana promastigotes. Type of experiment: cell-based, Leishmania mexicana.
Excerpt: Using the standard uptake technique as described for T. brucei and Leishmania species ([Wallace et al., 2002], [Al-Salabi and De Koning, 2005], [Gudin et al., 2006]), the dose- or time-dependent uptake of radiolabeled permeants was investigated. The following radiolabels and specific activities were used: [^3H]-thymidine (Perkin Elmer; 56.6 Ci/mmol); [^3H]-adenosine (American Radiolabeled Chemicals UK; 40 Ci/mmol); [^3H]-uridine (American Radiolabeled Chemicals UK; 30 Ci/mmol); [^3H]-uracil (Perkin Elmer; 24.8 Ci/mmol); [^3H]-inosine (American Radiolabeled Chemicals UK; 20 Ci/mmol); [^3H]-5-fluorouracil (Moravek; 20 Ci/mmol).
as §2
We next investigated the transport of [^3H]-adenosine in L. mexicana promastigotes, which according to the efficient inhibition of [^3H]-thymidine by adenosine, should be taken up with high affinity.

Another experiment has as its system L. major promastigotes. Briefly: total [3H]-uridine uptake by L. major promastigotes. Type of experiment: cell-based, Leishmania major. As to conditions: Leishmania major. Here is the method: as §1, §2
A further experiment concerns the target LmajUUT1. Briefly: [3H]-uridine uptake by L. major promastigotes, high-affinity uracil-sensitive component. Type of experiment: cell-based, Leishmania major. As to conditions: inhibition of 0.25 μM [3H]-uridine uptake. Here is the method:
as §1, §2

The target of experiment [3] is LmajNT1. Briefly: [3H]-uridine uptake by L. major promastigotes, low-affinity component. The format is cell-based, Leishmania major. As to conditions: inhibition of 0.25 μM [3H]-uridine uptake. As for the experimental part:
as §1, §2

Experiment [4] addresses LmajNT1. Briefly: [3H]-thymidine uptake by L. major promastigotes. The format is cell-based, Leishmania major. To be noted: for Ki: inhibition of 0.25 μM [3H]-thymidine uptake (total LmajNT1.1 + LmajNT1.2), 5 min. As for the experimental part: as §1, §2
Subsequent experiments were performed with a 5 min incubation time.

Experiment [5] has as its system T. b. brucei strain B48. Briefly: [3H]-inosine uptake in non-transfected T. brucei B48. Type of experiment: cell-based, Trypanosoma brucei brucei. Here is the method: as §1, §2
Another experiment has as its system LmexNT2. Briefly: [3H]-inosine transport by T. brucei B48 cells expressing LmexNT2. The format is cell-based, Leishmania mexicana. As for the experimental part: Plasmid construction and transfection was performed according to [Munday et al. (2013)]. The nucleoside transporter genes were isolated from L. mexicana and L. major. […] The primers used in this study (Table S2) were designed to flank the gene of interest, one complementary to the sequence upstream of the 5′ end and the other complementary to the sequence downstream of the 3′ end. All of the nucleoside transporters genes were PCR-amplified from genomic DNA of each strain using the high-fidelity proof-reading polymerase Phusion (New England Biolabs) and cloned into the pGEMTeasy (Promega) vector prior to Sanger sequencing (Source BioScience, Glasgow, UK). […] After confirming the identity of each gene, the nucleoside transporter genes (LmajNT1A, LmajNT1B, LmajNT2, LmexNT1A, LmexNT1B, and LmexNT2) were ligated into the expression vector pHD1336 ([Biebinger et al., 1997]) and then were linearized with NotI digestion. All genes were verified by Sanger sequencing, prior to transfection into T. b. brucei clone B48. B48 parasites (1 × 10^7 cells) were washed into Human T Cell buffer for transfection using the desired cassette with an Amaxa Nucleofector using program X-001. […]
(§3) Briefly, cells in the mid-to-late logarithmic stage of growth were harvested by centrifugation for 10 min at 1500×g. […] Radioactivity was determined by liquid scintillation counting in a Beckman LS6000 TA scintillation counter. […]

Experiment [6] has as its target LmexNT1. Type of experiment: cell-based, Leishmania mexicana. As to conditions: for rate of uptake: 1 μM [3H]-thymidine. As for the experimental part: as §1, §2
L. donovani is known to express one pyrimidine nucleoside transporter, LdNT1, which also transports adenosine ([Vasudevan et al., 1998], [De Koning et al., 2005]). In order to investigate whether this model held true for L. mexicana, the uptake of [^3H]-thymidine was studied. […] Care was taken throughout this study that whenever inhibition constants (Ki) or Michaelis-Menten constants (Km) were determined the conditions used had been verified to be well within the linear range of uptake.

The next experiment concerns LmajNT2. Briefly: [3H]-inosine transport by T. brucei B48 cells expressing LmajNT2. The format is cell-based, Leishmania major. Here is the method: Plasmid construction and transfection was performed according to [Munday et al. (2013)]. The nucleoside transporter genes were isolated from L. mexicana and L. major. […] The primers used in this study (Table S2) were designed to flank the gene of interest, one complementary to the sequence upstream of the 5′ end and the other complementary to the sequence downstream of the 3′ end. All of the nucleoside transporters genes were PCR-amplified from genomic DNA of each strain using the high-fidelity proof-reading polymerase Phusion (New England Biolabs) and cloned into the pGEMTeasy (Promega) vector prior to Sanger sequencing (Source BioScience, Glasgow, UK). […] After confirming the identity of each gene, the nucleoside transporter genes (LmajNT1A, LmajNT1B, LmajNT2, LmexNT1A, LmexNT1B, and LmexNT2) were ligated into the expression vector pHD1336 ([Biebinger et al., 1997]) and then were linearized with NotI digestion. All genes were verified by Sanger sequencing, prior to transfection into T. b. brucei clone B48. B48 parasites (1 × 10^7 cells) were washed into Human T Cell buffer for transfection using the desired cassette with an Amaxa Nucleofector using program X-001. Cells were transferred into pre-warmed HMI-9 medium and allowed to recover for 8–16 h at 37 °C and 5% CO2. Following recovery, transfectants were grown and cloned in selective medium containing 5 μg ml^−1 blasticidin S using limiting dilution.
as §1, §3

In experiment [7] the test system is T. b. brucei strain B48. Briefly: microbe, parasite or virus in culture. As to conditions: Trypanosoma brucei, read-out: inhibition of 0.5 μM [3H]-uridine uptake, 250 μM inhibitor. The format is cell-based. As for the experimental part: as §1
as §2, with “All experiments were performed in triplicate and on at least three independent occasions.” left out

[8] abbreviates: inhibition of 0.05 μM [3H]-adenosine uptake, read-out: Ki.
Setting [9] is: 50 nM [3H]-inosine + 250 μM adenosine.

SMILES strings stand for the structures. Like-named read-outs stand apart in the source and are kept apart here.

`Nc1ncnc2[nH]cnc12` [adenine]: the Ki (in general, a measure of affinity in units of concentration, obtained from inhibition or displacement) on LmexUU1 was 288 ± 67 µM; on LmexNT1 [1], above 1000 µM; on LmexNT1 [2] (setting [8]), above 1000 µM; at LmajUUT1 it was 5.14 ± 2.25 µM; on LmajNT1 [3], above 1000 µM; on LmajNT1 [4] it was above 1000 µM. In addition, the inhibition (in general, how much of the control response was suppressed) at 0.25 µM in the experiment on L. major promastigotes (3 h, read-out: partial (maximal) inhibition of 0.25 μM [3H]-uridine transport) was 62.7 ± 1.7%.
On to `O=c1[nH]cnc2c1ncn2[C@@H]1O[C@H](CO)[C@@H](O)[C@H]1O` [inosine], for which the Ki at LmexNT1 [1] was 1010 ± 190 µM; at LmexNT1 [6] (inhibition of 1 μM [3H]-thymidine uptake, 20 s), 640 ± 34 µM; at LmexNT1 [2] (setting [8]), 1630 ± 134 µM; on LmexNT1 [2] (inhibition of [3H]-adenosine uptake, read-out: affinity for inhibition of adenosine transport (Ki)) it was 1600 ± 100 µM; at LmajUUT1, 0.5 ± 0.16 µM; at LmajNT1 [3], above 1000 µM. The Ki on LmajNT1 [4] is 1990 ± 3050 µM. Besides, the rate of uptake in the experiment with T. b. brucei strain B48 [5] (50 nM [3H]-inosine) is listed as 0.0049 ± 0.0002 pmol(10^7 cells)s^−1. Besides, the figures for the “inhibition of 50 nM [3H]-inosine transport” value in the experiment on T. b. brucei strain B48 [5] (250 μM adenosine or 1 mM unlabeled inosine (Fig. 7B)), in the experiment with LmexNT2 (1 mM inosine) and in the experiment with LmajNT2 (1 mM inosine) were “fully inhibited”, 99.9% and 99.8%, respectively. Also, the “rate of transport in the presence of adenosine” value in the experiment with LmexNT2 (setting [9]) was 0.0023 ± 0.0003 pmol(10^7 cells)^−1s^−1. Further, in the experiment with LmajNT2 (setting [9]), the “uptake rate in the presence of adenosine” value is on record as 0.0023 ± 0.0001 pmol(10^7 cells)^−1s^−1. For the same compound, the inhibition at 100 µM in the experiment with L. major promastigotes (20 min, read-out: inhibition of 0.25 μM uridine transport in time course over 20 min, 100 μM inhibitor, n = 2) is 83.5%; in the experiment on L. major promastigotes (at 100 μM inhibitor, read-out: inhibition of 0.25 μM [3H]-uridine transport) it was 70.8 ± 4.5%. Moreover, in the experiment on T. b. brucei strain B48 [7], the inhibition at 250 µM came out at 24.3%.
For the compound `Cc1cn([C@H]2C[C@H](O)[C@@H](CO)O2)c(=O)[nH]c1=O` [thymidine], the Ki at LmexNT1 [1] turned out to be 9.98 ± 2.67 µM; at LmexNT1 [2] (setting [8]), 16.5 ± 0.4 µM; at LmajUUT1, 60.9 ± 8.4 µM; at LmajNT1 [3], 60.9 ± 8.4 µM. In addition, the rate of uptake is reported as 0.082 ± 0.005 pmol(10^7 cells)^−1s^−1 with LmexNT1 [6] (linear over 30 s (Fig. 1A)) and 0.051 ± 0.002 pmol(10^7 cells)^−1s^−1 in the experiment on LmexNT1 [6] (over 2 min (Fig. 1B)). Besides, in the experiment with LmexNT1 [6] ([3H]-thymidine), the Vmax is given as 1.53 ± 0.28 pmol(10^7 cells)^−1s^−1. For the same compound, the Km with LmexNT1 [6] ([3H]-thymidine, n = 3) stood at 11.2 ± 2.4 µM; in the experiment with LmajNT1 [4] ([3H]-thymidine, high affinity component, Lineweaver-Burke plot, n = 5, read-out: Km (1)), 4.2 ± 1.09 µM; with LmajNT1 [4] (n = 5, read-out: average Km from Michaelis-Menten saturation plots (single-component fit)) it was 30.7 ± 2.1 µM; in the experiment on LmajNT1 [4] (single experiment shown in Fig. 5C, read-out: apparent Km, higher affinity component) it was 1.26 µM; in the experiment with LmajNT1 [4] (single experiment shown in Fig. 5C, read-out: apparent Km, lower affinity component), 17.1 µM. Moreover, the “Vmax (1)” value in the experiment on LmajNT1 [4] ([3H]-thymidine, high affinity component) is reported as 0.023 ± 0.003 pmol(10^7 cells)^−1s^−1. In the experiment on LmajNT1 [4] ([3H]-thymidine, lower affinity component), the “Vmax (2)” value is on record as 0.14 ± 0.03 pmol(10^7 cells)^−1s^−1.
